Like-named read-outs stand apart in the source and are kept apart here.

Holding throughout (type): cell-based, Erwinia chrysanthemi
One test has as its target T1, ELIC D113A/D158A (Dickeya chrysanthemi, UniProt P0C7B7, D113A/D158A/INS163G).
T1 construct: expressed in transfected cells; host or cells: X. laevis oocytes
Description: cell-based. Conditions: for EC50: 113A/158A; for Slope: Schild plot slope. The protocol: (§1) Constructs containing the gene of either the WT or mutant channels preceded by the signal sequence of the chicken α7nAchR were cloned into the pTLN vector for expression in X. laevis oocytes. After linearization of the plasmid DNA by MluI, capped complementary RNA was transcribed with the mMessage mMachine kit (Ambion) and purified with the RNeasy kit (Qiagen). For expression, 1–50 ng of RNA was injected into defolliculated oocytes. Two-electrode voltage clamp measurements were performed 1 d after injection at 20°C (OC-725B, Warner Instrument Corp.). Currents were recorded in bath solutions containing 10 mM HEPES (pH 7), 130 mM NaCl, and the indicated concentrations of cysteamine and divalent cations. In case of solutions containing Zn^2+, cysteamine was replaced by propylamine. The membrane potential in all dose–response measurements was set to −40 mV. As ELIC is permeable to divalent cations, we tested if endogenous calcium-activated chloride channels affected our measurements. To chelate intracellular calcium ions, the oocytes were incubated for 15 to 30 min in bath solutions lacking divalent ions but containing 10 µM BAPTA-AM.

Test [1] addresses T2, ELIC WT (Dickeya chrysanthemi, UniProt P0C7B7).
T2 construct: expressed in transfected cells; host or cells: X. laevis oocytes (cRNA injection, pTLN vector)
Description: cell-based. Particulars: WT, agonist propylamine. On the procedure:
as §1

The target in another test is T3, ELIC H168A (Dickeya chrysanthemi, UniProt P0C7B7, H168A/INS163G).
T3 construct: expressed in transfected cells; host or cells: X. laevis oocytes
Description: Two-electrode voltage clamp, ELIC H168A in oocytes. Particulars: agonist propylamine. On the procedure: as §1

In a further test the target is T4, ELIC H176A (Dickeya chrysanthemi, UniProt P0C7B7, H176A/INS163G).
T4 construct: expressed in transfected cells; host or cells: X. laevis oocytes
The test is described as follows: Two-electrode voltage clamp, ELIC H176A in oocytes. Particulars: agonist propylamine. The protocol: as §1
(In general: Two-electrode voltage clamp is typically applied to oocytes expressing channels or transporters.)

A further test has as its target T5, ELIC (Dickeya chrysanthemi, UniProt P0C7B7, INS163G).
T5 construct: expressed in transfected cells; host or cells: HEK 293 cells (ATCC CRL-1573), pcDNA3
The test is described as follows: Agonist concentration jumps, outside-out patches from HEK 293 cells expressing ELIC. The protocol: Human embryonic kidney 293 cells (American Type Culture Collection-CRL-1573;LGC Promochem) were maintained at 37°C in a 95% air/5% CO2 incubator in DMEM supplemented with 0.11 g/l sodium pyruvate, 10% (v/v) heat-inactivated fetal bovine serum, 100 U/ml penicillin G, 100 µg/ml streptomycin sulfate, and 2 mM L-glutamine (Invitrogen). Cells (passaged every 2 d, up to 30 times) were plated and transfected by calcium phosphate-DNA coprecipitation, with a total amount of DNA of 3 µg/dish (82% ELIC and 18% eGFP DNA, both subcloned in pcDNA3).
Cells were bathed in an extracellular solution containing (mM): 150 KCl, 0.05 or 0.2 CaCl2, and 10 HEPES, pH adjusted to 7.4 with KOH (osmolarity 310 mOsm). Patch pipettes were pulled from thick-walled borosilicate glass (GC150F; Harvard Apparatus) and fire polished to a resistance of 8–12 MΩ. Intracellular solution contained (mM): 150 KCl, 0.5 CaCl2, 5 EGTA, and 10 HEPES, pH adjusted to 7.4 with KOH. Agonist-evoked currents were recorded at 20°C with an Axopatch 200B amplifier (Molecular Devices) from outside-out patches held at −100 mV. Patches were stepped to this holding voltage 0.2 s before the agonist was applied and otherwise held at −40 mV. No correction for junction potential was applied (calculated value 0.2 mV). Currents were filtered at 5 kHz, digitized at 50 kHz with Digidata 1322A, and saved directly on computer with Clampex software (all MDS Analytical Technologies).
All concentration jumps were performed using a piezo stepper (Burleigh instruments) with an application tool made from theta tube glass (Hilgenberg; final tip diameter, 150 µm). Voltage commands for the piezo stepper were 200 ms square pulses conditioned by low-pass eight-pole Bessel filtering (−3 dB frequency 5 kHz) to smooth oscillations. Actual exchange time was estimated by recording the open-tip response to the application of diluted extracellular solution (70% water) after rupture of the patch. Only patches in which the 20%–80% exchange time was faster than 250 µs were included in the analysis.
Agonist solutions were freshly prepared every day from 1 M stock solutions. Propylamine was applied at a concentration known to elicit maximum response (20 mM and 50 mM, for 50 and 200 µM Ca^2+, respectively). Traces shown are averages of 5 or 10 individual agonist currents, separated by at least 10 s. Responses were averaged, and the time course of activation and deactivation (between 95% and 5% of the peak current level) was fitted with one exponential component (program Clampfit 9.0).

The target of test [2] is T6, ELIC WT (Dickeya chrysanthemi, UniProt P0C7B7, INS163G).
T6 construct: expressed in transfected cells; host or cells: X. laevis oocytes (cRNA injection, pTLN vector)
Description: cell-based. Particulars: for Slope: Schild plot slope. The protocol:
as §1

Another test addresses T7, ELIC R91A (Dickeya chrysanthemi, UniProt P0C7B7, INS163G/R91A).
T7 construct: expressed in transfected cells; host or cells: X. laevis oocytes
Description: Two-electrode voltage clamp, ELIC R91A in oocytes. Conditions: for Slope: Schild plot slope; for pA: agonist cysteamine. On the procedure:
as §1

Setting [3] is: Ca^2+ 50 µM, propylamine 20 mM (last line, repeat).
Where [4] appears, read: Ca^2+ 50 µM, propylamine 20 mM, −100 mV (first line).
The mark [5] stands for this setting: Ca^2+ 200 µM, propylamine 20 mM.
Setting [6] is: Ca^2+ 200 µM, propylamine 50 mM.
Setting [7] is: WT, Schild analysis, agonist cysteamine, read-out: Ki app.
Where [8] appears, read: WT, Schild plot x-intercept (log of mM), agonist cysteamine, −40 mV.
[9] abbreviates: D113A/D158A, agonist cysteamine.

With `CCCN` [propylamine], the EC50 (as a rule, the concentration needed to bring the measured effect to its halfway point) on ELIC D113A/D158A (Zn^2+ 0 mM, agonist propylamine) came out at 3.7 mM; at ELIC D113A/D158A (Zn^2+ 0.01 mM, agonist propylamine) it was 4.56 mM; at ELIC D113A/D158A (Zn^2+ 0.1 mM, agonist propylamine), 4.22 mM; at ELIC WT [1] (Zn^2+ 0.01 mM), 0.92 mM; on ELIC WT [1] (Zn^2+ 0.05 mM) it was 3.72 mM; on ELIC WT [1] (Zn^2+ 0.1 mM), 10.1 mM. The EC50 at ELIC H168A (Zn^2+ 0 mM) came out at 0.67 mM; at ELIC H168A (Zn^2+ 0.01 mM), 1.17 mM; at ELIC H168A (Zn^2+ 0.05 mM) it was 4.82 mM; on ELIC H168A (Zn^2+ 0.1 mM), 12.2 mM; at ELIC H176A (Zn^2+ 0 mM), 5.16 mM; on ELIC H176A (Zn^2+ 0.01 mM) it was 11.9 mM. In addition, at ELIC H176A (Zn^2+ 0.025 mM), the EC50 is 25.5 mM. Moreover, the τdecay at ELIC (setting [3]) was found to be 33.5 ± 6.9 ms; on ELIC (setting [4]), 34.7 ± 5.6 ms; on ELIC (setting [5]), 23.9 ± 3.1 ms; at ELIC (setting [6]), 36.7 ± 12.7 ms. Moreover, the τrise worked out at 19.6 ± 3.1 ms at ELIC (setting [3]), 16.7 ± 1.5 ms at ELIC (setting [4]), 38.5 ± 6.7 ms on ELIC (setting [5]) and 16.4 ± 2.2 ms at ELIC (setting [6]).

Regarding `[Sr+2]` [Sr^2+], the Ki on ELIC WT [2] (setting [7]) worked out at 850 µM. On ELIC WT [2] (WT, agonist cysteamine), this compound yielded a Slope of 0.9±0.02. In addition, the pA on ELIC WT [2] (setting [8]) is listed as −0.07±0.02.

As to `C[N+](C)(C)C` [TMA, tetramethylammonium], the Ki at ELIC R91A (R91A, Schild analysis, read-out: Ki app) is 6 mM. Moreover, at ELIC R91A (R91A), the Slope stood at 0.8±0.1 and the pA amounted to 0.78±0.18.

Take `[Mg+2]` [Mg^2+]: the Ki at ELIC WT [2] (setting [7]) was 430 µM. Moreover, the Slope on ELIC WT [2] (WT, agonist cysteamine) stood at 0.9±0.01. Also, the pA on ELIC WT [2] (setting [8]) was −0.36±0.02.

Consider `CC(=O)OCC[N+](C)(C)C` [ACh, acetylcholine], for which the Slope on ELIC D113A/D158A (D113A/D158A) was 0.8±0.1; at ELIC WT [2] (WT/1 mM Ca^2+), 1.1±0.01; on ELIC WT [2] (WT/.25 mM Ca^2+), 0.9±0.1; at ELIC WT [2] (WT/.5 mM Ca^2+) it was 0.9±0.01; on ELIC WT [2] (WT, agonist cysteamine) it was 1.0±0.1; on ELIC WT [2] (WT, agonist cysteamine, listed as acetylcholine), “unity”. This compound gave a Slope on ELIC R91A (R91A) of 0.7±0.1. The pA is 0.32±0.06 on ELIC D113A/D158A (setting [9]); 0.35±0.01 at ELIC WT [2] (WT/1 mM Ca^2+ present, agonist cysteamine); 0.06±0.06 on ELIC WT [2] (WT/.25 mM Ca^2+ present, agonist cysteamine); 0.11±0.09 at ELIC WT [2] (WT/.5 mM Ca^2+ present, agonist cysteamine); 0.21±0.06 at ELIC WT [2] (setting [8]); −0.77±0.05 on ELIC R91A (R91A). Further, the “increase in the Schild affinity in the mutant R91A” value at ELIC R91A (R91A versus WT) is on record as 10 fold.

Consider `[Zn+2]` [Zn^2+, zinc], for which the “modulation in the double mutant” value at ELIC D113A/D158A (D113A/D158A, agonist propylamine) was “abolish”. For the same compound, the Ki on ELIC WT [2] (WT, Schild analysis, agonist propylamine, read-out: Ki app) was 7 µM; on ELIC WT [2] (WT, agonist propylamine, read-out: Schild plot x-intercept) it was 8 µM. At ELIC WT [2] (WT, agonist propylamine), this compound registered a Slope of 1.2±0.01. On ELIC WT [2] (WT, Schild plot x-intercept, agonist propylamine), this compound gave a pA of −2.16±0.13.

In the case of `[Ba+2]` [Ba^2+, barium], the Ki on ELIC D113A/D158A (D113A/D158A, Schild analysis, read-out: Ki app) was 6.5 mM; on ELIC WT [2] (setting [7]) it was 850 µM. In addition, the Slope at ELIC D113A/D158A (D113A/D158A) was determined as 0.6±0.02; at ELIC WT [2] (WT, agonist cysteamine) it was 1.1±0.03. The “effects on the agonist dose-response curves in the double mutant” value at ELIC D113A/D158A (setting [9]) is “virtually abolishes”. The pA was 0.81±0.02 on ELIC D113A/D158A (setting [9]) and −0.07±0.01 on ELIC WT [2] (setting [8]).

The record behind these values is PMC3502511, “Inhibition of the Prokaryotic Pentameric Ligand-Gated Ion Channel ELIC by Divalent Cations” (PLoS Biology, 2012).
